This note sets out measurements from patent publication US9850227B2 (YUHAN CORPORATION, priority 2011, dated 2017).

Where a name gives a salt, the structure may show the parent alone.

T1 sequence (Q13639 1-387 isoform Q13639-2): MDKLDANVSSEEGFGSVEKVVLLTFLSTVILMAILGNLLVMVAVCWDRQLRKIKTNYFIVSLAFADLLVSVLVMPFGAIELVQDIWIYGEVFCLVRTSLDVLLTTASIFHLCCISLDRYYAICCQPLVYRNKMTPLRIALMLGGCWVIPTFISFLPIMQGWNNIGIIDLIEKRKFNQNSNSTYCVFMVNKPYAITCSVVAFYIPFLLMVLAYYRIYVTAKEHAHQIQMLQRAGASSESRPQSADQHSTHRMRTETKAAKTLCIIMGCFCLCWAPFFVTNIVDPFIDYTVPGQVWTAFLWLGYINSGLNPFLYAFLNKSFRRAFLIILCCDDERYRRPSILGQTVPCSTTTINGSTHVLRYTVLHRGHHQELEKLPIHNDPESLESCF

The experiment concerns the target T1, human 5-HT4(a) (Homo sapiens, UniProt Q13639).
T1 construct: host or cells: GeneBIAzer HTR4-CRE-bla CHO-K1 cells
As to the kind of experiment: Evaluation of agonistic activity in CHO-K1 cells expressing human 5-HT4(a) (GeneBIAzer HTR4-CRE-bla CHO-K1 cells, beta-lactamase fluorescence ratio, EC50 from 8 concentrations). It is filed as cell-based. The method, boiled down: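 HTR4-CRE-bla CHO-K1 cells (10^4 per well, overnight in 1% FBS medium) exposed to compound for 5 h, then beta-lactamase substrate 2 h in the dark. Fluorescence ratio at 465/535 nm after 410 nm excitation; EC50 by non-linear regression over 8 concentrations.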
Consider `CCCc1cc(N2CCC[C@@H](NC(=O)CO)C2)nc(Nc2ccc(C)c(N)c2)n1` [Example 252, (R)—N-{1-[2-(3-amino-4-methylphenylamino)-6-propylpyrimidin-4-yl]piperidin-3-yl}-2-hydroxyacetamide], for which the EC50 came out at 0.094 nM. As to `CCCc1cc(N2CCC[C@@H](NC)C2)nc(Nc2ccc(C)c(F)c2)n1` [Example 323, (R)—N-(3-fluoro-4-methylphenyl)-4-[3-(methylamino)piperidin-1-yl]-6-propylpyrimidin-2-amine], the EC50 stood at 0.416 nM.

For `CCCc1cc(N2CCNC[C@H]2C)nc(Nc2cccc([N+](=O)[O-])c2)n1` [Example 120], the concentration giving a half-maximal response (EC50) amounted to 0.073 nM. The value for `CCCCc1cc(N2CCC[C@@H](N)C2)nc(Nc2ccc(C)c(OC)c2)n1` [Example 345, (R)-4-(3-aminopiperidin-1-yl)-6-butyl-N-(3-methoxy-4-methylphenyl)pyrimidin-2-amine] was 0.08 nM; that for `CCCCc1cc(N2CCC[C@@H](NCCCSC)C2)nc(Nc2ccc(C)c(C#N)c2)n1` [Example 305, (R)-5-{[4-butyl-6-(3-{[3-(methylthio)propyl]amino}piperidin-1-yl)pyrimidin-2-yl]amino}-2-methylbenzonitrile] was 0.0091 nM; that for `CCCc1cc(N2CCCCC2)nc(Nc2ccc(Cl)c([N+](=O)[O-])c2)n1` [Example 45, N-(4-chloro-3-nitrophenyl)-4-(piperidin-1-yl)-6-propylpyrimidin-2-amine] was 0.27 nM. In the case of `CCCCc1cc(N2CCC[C@@H](NC(C)=O)C2)nc(Nc2ccc(F)c(C#N)c2)n1` [Example 240, (R)—N-{1-[6-butyl-2-(3-cyano-4-fluorophenylamino)pyrimidin-4-yl]piperidin-3-yl}acetamide] it was 0.012 nM; in that of `CCCc1cc(N2CCC[C@@H](N)C2)nc(Nc2ccc(F)c(C#N)c2)n1` [Example 222, (R)-5-[4-(3-aminopiperidin-1-yl)-6-propylpyrimidin-2-ylamino]-2-fluorobenzonitrile dihydrochloride], 0.056 nM.

With `CCCc1cc(N2CCCCC2CCO)nc(Nc2ccc(Cl)c([N+](=O)[O-])c2)n1` (stereo not shown) [Example 24, 2-{1-[2-(4-chloro-3-nitrophenylamino)-6-propylpyrimidin-4-yl]piperidin-2-yl}ethanol], the EC50 came to 0.026 nM. As for `CCCc1cc(N2CCCCC2CCO)nc(Nc2cccc(OC)c2)n1` (stereo not shown) [Example 138, 2-{1-[2-(3-methoxyphenylamino)-6-propylpyrimidin-4-yl]piperidin-2-yl}ethanol], the EC50 amounted to 0.46 nM.

For `CCCCCN[C@@H]1CCCN(c2cc(CCC)nc(Nc3ccc(C)c(C#N)c3)n2)C1` [Example 208, (R)-2-methyl-5-{4-[3-(pentylamino)piperidin-1-yl]-6-propylpyrimidin-2-ylamino}benzonitrile], the EC50 is 0.029 nM.

Regarding `CCCc1cc(N2CCC[C@H](NCc3ccc(O)cc3)C2)nc(Nc2ccc(C)c(C#N)c2)n1` [Example 164, (S)-5-{4-[3-(4-hydroxybenzylamino)piperidin-1-yl]-6-propylpyrimidin-2-ylamino}-2-methylbenzonitrile], the EC50 came to 0.075 nM.

On to `CCCc1cc(N2CCC[C@@H](NC)C2)nc(Nc2ccc(N)c(C(F)(F)F)c2)n1` [Example 285, (R)—N^1-[4-(3-methylaminopiperidin-1-yl)-6-propylpyrimidin-2-yl]-3-(trifluoromethyl)benzene-1,4-diamine], for which the EC50 is 0.005 nM. Turning to `CCCc1cc(N2CCC[C@@H](NCC3CC3)C2)nc(Nc2ccc(N)c([N+](=O)[O-])c2)n1` [Example 228, (R)—N^1-{4-[3-(cyclopropylmethylamino)piperidin-1-yl]-6-propylpyrimidin-2-yl}-3-nitrobenzene-1,4-diamine], the EC50 stood at 0.0035 nM.

`CCCc1cc(N2CCNC[C@H]2C)nc(Nc2ccc(C)c(C#N)c2)n1` [Example 126, (R)-2-methyl-5-[4-(2-methylpiperazin-1-yl)-6-propylpyrimidin-2-ylamino]benzonitrile]: the EC50 turned out to be 0.013 nM. Turning to `CCCc1cc(N2CCC[C@@H](NC(=O)CO)C2)nc(Nc2ccc(F)c(N)c2)n1` [Example 250, (R)—N-{1-[2-(3-amino-4-fluorophenylamino)-6-propylpyrimidin-4-yl]piperidin-3-yl}-2-hydroxyacetamide], the EC50 was determined as 0.027 nM. Regarding `CCCc1cc(N2CCNC[C@H]2C)nc(Nc2cccc(C#N)c2)n1` [Example 82, (R)-3-[4-(2-methylpiperazin-1-yl)-6-propylpyrimidin-2-ylamino]benzonitrile dihydrochloride], the EC50 turned out to be 0.096 nM. Turning to `CCCCc1cc(N2CCC[C@@H](NC(C)=O)C2)nc(Nc2ccc(C)c([N+](=O)[O-])c2)n1` [Example 233, (R)—N-{1-[6-butyl-2-(4-methyl-3-nitrophenylamino)pyrimidin-4-yl]piperidin-3-yl}acetamide], the EC50 was determined as 0.009 nM. With `CCCCc1cc(N2CCC[C@@H](NC)C2)nc(Nc2ccc(C)c(N)c2)n1` [Example 319, (R)—N^1-{4-butyl-6-[3-(methylamino)piperidin-1-yl]pyrimidin-2-yl}-4-methylbenzene-1,3-diamine], the EC50 is 0.0047 nM. For `CCCc1cc(N2CCCCC2CCO)nc(Nc2ccc(F)c([N+](=O)[O-])c2)n1` (stereo not shown) [Example 142, 2-{1-[2-(4-fluoro-3-nitrophenylamino)-6-propylpyrimidin-4-yl]piperidin-2-yl}ethanol], the EC50 amounted to 0.3 nM.

Consider `CCCCc1cc(N2CCC[C@@H](N)C2)nc(Nc2ccc(Cl)c([N+](=O)[O-])c2)n1` [Example 353, (R)-4-(3-aminopiperidin-1-yl)-6-butyl-N-(4-chloro-3-nitrophenyl)pyrimidin-2-amine], for which the EC50 turned out to be 0.337 nM. Turning to `CCCCc1cc(N2CCC[C@@H](N)C2)nc(Nc2ccc(C)c(N)c2)n1` [Example 346, (R)—N^1-[4-(3-aminopiperidin-1-yl)-6-butylpyrimidin-2-yl]-4-methylbenzene-1,3-diamine], the EC50 is 0.135 nM.

As to `CCCCc1cc(N2CCC[C@@H](N)C2)nc(Nc2ccc(F)c(N)c2)n1` [Example 349, (R)—N^1-[4-(3-aminopiperidin-1-yl)-6-butylpyrimidin-2-yl]-4-fluorobenzene-1,3-diamine], the EC50 turned out to be 0.014 nM.

On to `CCCc1cc(N2CCC[C@@H](N)C2)nc(Nc2cc(N)cc(C(F)(F)F)c2)n1` [Example 256, (R)—N^1-[4-(3-aminopiperidin-1-yl)-6-propylpyrimidin-2-yl]-5-(trifluoromethyl)benzene-1,3-diamine], for which the EC50 came to 0.012 nM. In the case of `CCCCc1cc(N2CCC[C@@H](NC(C)=O)C2)nc(Nc2cc(N)cc(C#N)c2)n1` [Example 236, (R)—N-{1-[2-(3-amino-5-cyanophenylamino)-6-butylpyrimidin-4-yl]piperidin-3-yl}acetamide], the EC50 is 0.0088 nM. For `CCCCc1cc(N2CCC[C@@H](NC(C)=O)C2)nc(Nc2ccc(N)c(C#N)c2)n1` [Example 243, (R)—N-{1-[2-(4-amino-3-cyanophenylamino)-6-butylpyrimidin-4-yl]piperidin-3-yl}acetamide], the EC50 was determined as 0.0094 nM. With `CCCc1cc(N2CCCCC2CCO)nc(Nc2ccc(N)c([N+](=O)[O-])c2)n1` (stereo not shown) [Example 176, 2-{1-[2-(4-amino-3-nitrophenylamino)-6-propylpyrimidin-4-yl]piperidin-2-yl}ethanol], the EC50 was 0.018 nM. For the compound `CCCc1cc(N2CCC[C@@H](NC(=O)CO)C2)nc(Nc2ccc(N)c(C(F)(F)F)c2)n1` [Example 248, (R)—N-(1-{2-[4-amino-3-(trifluoromethyl)phenylamino]-6-propylpyrimidin-4-yl}piperidin-3-yl)-2-hydroxyacetamide], the EC50 came to 0.018 nM. As for `CCCc1cc(N2CCC[C@@H](NC)C2)nc(Nc2ccc(C)c(C)c2)n1` [Example 322, (R)—N-(3,4-dimethylphenyl)-4-[3-(methylamino)piperidin-1-yl]-6-propylpyrimidin-2-amine], the EC50 was 0.243 nM. Turning to `CCCc1cc(N2CCC[C@@H](NC)C2)nc(Nc2ccc(N)c(C#N)c2)n1` [Example 308, (R)-2-amino-5-({4-[3-(methylamino)piperidin-1-yl]-6-propylpyrimidin-2-yl}amino)benzonitrile], the EC50 worked out at 0.013 nM.

Turning to `CCCc1cc(N2CCCC3CCCCC32)nc(Nc2ccc(F)c([N+](=O)[O-])c2)n1` (stereo not shown) [Example 189, N-(4-fluoro-3-nitrophenyl)-4-(octahydroquinolin-1(2H)-yl)-6-propylpyrimidin-2-amine], the EC50 was 0.32 nM. For the compound `CCCc1cc(N2CCC[C@H](NCC(C)(C)C)C2)nc(Nc2ccc(C)c(C#N)c2)n1` [Example 158, (S)-2-methyl-5-{4-[3-(neopentylamino)piperidin-1-yl]-6-propylpyrimidin-2-ylamino}benzonitrile], the EC50 amounted to 0.054 nM. Turning to `CCCc1cc(N2CCC[C@@H](N(CC)CC)C2)nc(Nc2ccc(F)c(C#N)c2)n1` [Example 270, (R)-5-[4-(3-diethylaminopiperidin-1-yl)-6-propylpyrimidin-2-ylamino]-2-fluorobenzonitrile], the EC50 turned out to be 0.148 nM. In the case of `CCCCc1cc(N2CCC[C@@H](NC)C2)nc(Nc2ccc(C)c(OC)c2)n1` [Example 318, (R)-4-butyl-N-(3-methoxy-4-methylphenyl)-6-[3-(methylamino)piperidin-1-yl]pyrimidin-2-amine] it was 0.025 nM.

For the compound `CCCCCN[C@H]1CCCN(c2cc(CCC)nc(Nc3ccc(C)c(C#N)c3)n2)C1` [Example 155, (S)-5-{4-[3-(pentylamino)piperidin-1-yl]-6-propylpyrimidin-2-ylamino}-2-methylbenzonitrile], the EC50 worked out at 0.093 nM. Turning to `CCCc1cc(N2CCCCC2CCO)nc(Nc2ccc(Cl)c(N)c2)n1` (stereo not shown) [Example 182, 2-{1-[2-(3-amino-4-chlorophenylamino)-6-propylpyrimidin-4-yl]piperidin-2-yl}ethanol], the EC50 was 0.022 nM. In the case of `CCCCc1cc(N2CCC[C@@H](NC)C2)nc(Nc2ccc(C)c(C)c2)n1` [Example 330, (R)-4-butyl-N-(3,4-dimethylphenyl)-6-[3-(methylamino)piperidin-1-yl]pyrimidin-2-amine] it was 0.086 nM.
